According to article PMC12275138, “Identification of glycosylated flavonoids as new physiological ligands of the hazel allergen Cor a 1: Complex structures reveal different binding orientation and specificity of mono- and disaccharide derivatives” (Food Chemistry: X, 2025):

Assays:
[1] = target: T1, Cor a 1.0101 (Corylus avellana, UniProt Q08407); experiment: 1H, […] HSQC screening; assay type: binding; settings: 60 µM protein, at least 5-fold ligand excess, pH 7.5
T1 construct: recombinant from E. coli, 15N labelled
T1 sequence (Q08407 2-160): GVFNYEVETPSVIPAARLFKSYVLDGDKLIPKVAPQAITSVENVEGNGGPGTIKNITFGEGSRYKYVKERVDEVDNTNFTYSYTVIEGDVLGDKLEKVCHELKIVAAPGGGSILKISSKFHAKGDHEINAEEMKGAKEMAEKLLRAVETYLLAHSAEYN

[2] = target: T2, Cor a 1.0302 (Corylus avellana, UniProt A0AA49EHN2); experiment: 1H, […] HSQC screening; assay type: binding; settings: 60 µM protein, at least 5-fold ligand excess, pH 7.5
T2 construct: recombinant from E. coli, 15N labelled
T2 sequence (A0AA49EHN2 1-159): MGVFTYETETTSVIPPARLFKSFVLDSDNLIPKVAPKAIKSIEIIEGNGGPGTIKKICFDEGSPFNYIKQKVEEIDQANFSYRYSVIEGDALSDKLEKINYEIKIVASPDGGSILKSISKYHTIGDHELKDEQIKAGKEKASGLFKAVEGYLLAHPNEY

| SMILES | 1H,15N HSQC screening [1] | 1H,15N HSQC screening [2] |
| --- | --- | --- |
| C[C@@H]1O[C@@H](Oc2c(-c3ccc(O)cc3)oc3cc(O)cc(O)c3c2=O)[C@H](O)[C@H](O)[C@H]1O [K3OR] | All the other isoallergens bound to Q3OGlc, Q3OGal, and K3OR. | – |
| O=c1c(O[C@@H]2O[C@H](CO)[C@@H](O)[C@H](O)[C@H]2O)c(-c2ccc(O)c(O)c2)oc2cc(O)cc(O)c12 [Q3OGlc] | All the other isoallergens bound to Q3OGlc, Q3OGal, and K3OR. | All the other isoallergens bound to Q3OGlc, Q3OGal, and K3OR. |
